Reference: the supplement of paper PMC10307832

How the values were obtained:
Assay in all cases: relative viability (nuclei count vs DMSO), 5 days (fraction); higher = more cells survive
[1] = compound: O=C(/C=C/c1cccnc1)NCCCCC1CCN(C(=O)c2ccccc2)CC1 [Daporinad] + CS(=O)(=O)CCNCc1ccc(-c2ccc3ncnc(Nc4ccc(OCc5cccc(F)c5)c(Cl)c4)c3c2)o1 [Lapatinib] (partner 2 µM)
Summary of the method: (§1)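 After 5 days of treatment, lung cancer cells in 1536-well plates were fixed and stained in a single step (final 0.05% Triton X-100, 1% formaldehyde, 1 ug/ml Hoechst) and their nuclei counted on 4× images. Treatment had been applied by pin tool the day after seeding as one drug alone or as a fixed anchor-drug dose with five library-drug doses (not always all listed) in √10 steps. Relative viability is the nuclei count of treated wells divided by that of vehicle wells, and values are medians of duplicate plates.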

[2] = compound: COc1cc(Nc2ncc(F)c(Nc3ccc4c(n3)NC(=O)C(C)(C)O4)n2)cc(OC)c1OC [R406] + CC(C)C[C@H](NC(=O)[C@H](Cc1ccccc1)NC(=O)c1cnccn1)B(O)O [Bortezomib] (partner 0.002 µM)
Summary of the method: as §1

[3] = compound: COc1cc(Nc2ncc(F)c(Nc3ccc4c(n3)NC(=O)C(C)(C)O4)n2)cc(OC)c1OC [R406] + Cc1nc(Nc2ncc(C(=O)Nc3c(C)cccc3Cl)s2)cc(N2CCN(CCO)CC2)n1 [Dasatinib] (partner 0.075 µM)
Summary of the method: as §1

[4] = compound: COc1cc(Nc2ncc(F)c(Nc3ccc4c(n3)NC(=O)C(C)(C)O4)n2)cc(OC)c1OC [R406] + CCNC(=O)c1noc(-c2cc(C(C)C)c(O)cc2O)c1-c1ccc(CN2CCOCC2)cc1 [Luminespib] (partner 0.01 µM)
Summary of the method: as §1

UMC-11 was tested, and the relative viability ([1]; first compound 0.0005 µM) was 0.995, the relative viability ([1]; first compound 0.001581 µM) was 1.06 and the relative viability ([1]; first compound 0.005 µM) was 1.08. The relative viability ([1]; first compound 0.01581 µM) was 1.24, the relative viability ([2]; first compound 0.08 µM) was 0.78 and the relative viability ([2]; first compound 0.253 µM) was 0.996. The relative viability ([2]; first compound 0.8 µM) was 0.99, the relative viability ([2]; first compound 2.53 µM) was 0.251 and the relative viability ([2]; first compound 8 µM) was 0.342. The relative viability ([3]; first compound 0.08 µM) was 0.466, the relative viability ([3]; first compound 0.253 µM) was 0.572 and the relative viability ([3]; first compound 0.8 µM) was 0.519. It also gave a relative viability ([3]; first compound 2.53 µM) of 0.459, a relative viability ([3]; first compound 8 µM) of 0.342 and a relative viability ([4]; first compound 0.08 µM) of 1.09. For the same cell line, the relative viability ([4]; first compound 0.253 µM) was 1.07, the relative viability ([4]; first compound 0.8 µM) was 1.12 and the relative viability ([4]; first compound 2.53 µM) was 0.835. The relative viability ([4]; first compound 8 µM) was 0.418.
